Usually EC50 stands for the concentration needed to bring the measured effect to its halfway point. The bioavailability is dose-corrected exposure relative to a reference, in per cent. The term clearance denotes the rate of elimination divided by the concentration.

Results on two compounds are retold here after patent US11964969B2, “Crystal forms of thiazole compound and application thereof” (PHAENO THERAPEUTICS CO., LTD, priority 2018, dated 2024).

Data set [1] deals with GHSV-UL 46 strain of herpes simplex virus-1 (HSV-1). The data set is described as follows: Assay of cytopathic effect (CPE) of herpes simplex virus-1 in Vero E6 cells. Type of data set: cell-based. As to conditions: Human alphaherpesvirus 1, Vero C1008, 120 h, read-out: HSV-1 Cytopathic Assay EC50. As for the experimental part:
Assay Example 1: Assay of Cytopathic Effect of Herpes Simplex Virus-1 (Evaluation In Vitro)
The assay of cytopathic effect (CPE) was used to determine the antiviral activity of the compound against the GHSV-UL 46 strain of herpes simplex virus-1 (HSV-1).
Virus: HSV-1 GHSV-UL46, ATCC #VR-1544
Cell: African green monkey kidney cell, Vero E6, donated by Wuhan Instititute of Virology, Chinese Academy of Sciences.
Cell growth medium: 500 ml of DMEM medium+50 ml of fetal bovine serum+5 ml of double antibody+5 ml of non-essential amino acids.
Medium for the assay of cytopathic effect: 500 ml of DMEM medium+10 ml of fetal bovine serum+5 ml of double antibody+5 ml of non-essential amino acids.
1.4. […]
2.2. […] Each test compound was measured at 8 concentrations in duplicate. […]
3.4. The absorbance value of each well of the cell plate was read with a microplate reader at a wavelength of 450 nm, and 630 nm was used as a reference wavelength. The value of raw data was the absorbance at 450 nm minus the absorbance at 630 nm (raw data=OD450−OD630).
4.1. The antiviral activity of the test compound (% Inhibition) was calculated using the following equation:
[formula] wherein sample is the absorbance value of compound test wells, cell control is the average absorbance value of cell control wells, and virus control is the average absorbance value of virus control wells. […]
(In general: Cytopathic effects are the visible damage that an infection or toxin causes in cultured cells.)

The nature of data set [2]: Evaluation of pharmacokinetics of the compound in mice. As to conditions: male, mouse, plasma, Balb/c mice. Type of data set: in vivo. The protocol:
Assay Example 2: Evaluation of Pharmacokinetics of the Compound
Object of the assay: to test the pharmacokinetics of the compound in mice in vivo.
Balb/c mice (male, 18-22 g, 6-8 weeks old, from Shanghai SLAC)
The pharmacokinetic profile of the compound after intravenous injection and oral administration in the rodents was tested by the standard protocol. The candidate compound was formulated into a corresponding solution, and administered through a single intravenous injection (1.0 mg/kg, 5% of DMSO/95% of 20% hydroxypropyl-beta-cyclodextrin) or an intragastric administration (1.0 mg/kg, 0.5% of methylcellulose MC4000). The whole blood sample was collected within 24 hours, and centrifuged at 3000 g for 15 minutes. […] The resulting mixture was centrifuged and the supernatant was taken out, to which an equal volume of water was added and centrifuged. The supernatant was taken out, and injected as a sample to quantitatively analyze the plasma drug concentration by LC-MS/MS analysis method. The pharmacokinetic parameters were calculated, such as peak concentration, peak time, clearance rate, half-life, area under the drug-time curve, bioavailability, etc.

The nature of data set [3]: Hygroscopicity study by dynamic vapor sorption (DVS). The data set is classed as physicochemical. The note with it: 25° C. and 80% RH. As for the experimental part: Dynamic Vapor Sorption (DVS) Method Used in the Present Disclosure
Instrument model: SMS DVS Advantage dynamic vapor sorption apparatus
Test condition: The sample (10˜15 mg) was taken and put into a DVS sample pan for testing.
The detailed DVS parameters were as follows:
Equilibration: dm/dt=0.01%/min (The shortest time: 10 min, and the longest time: 180 min)
Drying: Dried for 120 min at 0% RH
RH (%) test gradient: 10%
Range of RH (%) test gradient: 0%-90%-0%
The classification of hygroscopicity evaluation was as follows:
Example 4: Study on the Hygroscopicity of the Crystal Form B of the Compound of Formula (II)
SMS DVS Advantage dynamic vapor sorption apparatus
10-15 mg of the crystal form B of the compound of formula (II) was taken and put into a DVS sample pan for testing.

As for `Cc1nc(N(C)C(=O)[C@@H]2Cc3ccc(-c4ccccn4)cc3C2)sc1S(N)(=O)=O` [Compound of formula (I)], the EC50 in data set [1] came to 7 nM. Moreover, the bioavailability in data set [2] (intragastric (oral) administration 1.0 mg/kg, read-out: Bioavailability F) was 75%. Also, in data set [2] (intragastric (oral) administration 1.0 mg/kg, read-out: Concentration integral AUC), the AUC stood at 24.4 µM·h. Moreover, in data set [2] (single intravenous injection 1.0 mg/kg, read-out: Clearance rate), the clearance was 1.2 mL/min/kg. In addition, in data set [2] (single intravenous injection 1.0 mg/kg, read-out: Half-life T1/2 (converted)), the half-life is 6 h.

Take `CS(=O)(=O)O.Cc1nc(N(C)C(=O)[C@@H]2Cc3ccc(-c4ccccn4)cc3C2)sc1S(N)(=O)=O`: in data set [3], the Classification of hygroscopicity entry is recorded as “slightly hygroscopic” and the “Weight increase by moisture absorption ΔW” value is 1.158%.
